Where “and” joins values, the source holds several entries; their conditions need not be identical. Identical values can stand only once.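 Following 48 hours of exposure in 96-well plates, responses at five concentrations were used to interpolate endpoints linearly. GI50 = concentration required for 50% inhibition of growth. Definition used: TGI = concentration required for complete inhibition of growth.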
Key:
Experiment in all cases: NCI-60 cell line screen, 48 h
[1] = tested on: A498 renal
[2] = tested on: NCI-H226 lung
[3] = tested on: NCI-H460 lung
[4] = tested on: OVCAR-4 ovarian
[5] = tested on: SF-268 CNS
[6] = tested on: SF-295 CNS
[7] = tested on: SN12C renal
[8] = tested on: UACC-62 melanoma
[9] = tested on: NCI-H522 lung
[10] = tested on: OVCAR-5 ovarian

SMILES	TGI [1]	TGI [2]	TGI [3] [µM]	TGI [4] [µM]	TGI [5] [µM]	TGI [6] [µM]	TGI [7]	TGI [8]	GI50 [2] [µM]	GI50 [3] [µM]	GI50 [9] [µM]	TGI [9] [µM]	GI50 [5] [µM]	GI50 [6]	GI50 [7] [µM]	GI50 [8] [µM]	GI50 [4] [µM]	GI50 [10] [µM]	TGI [10]	GI50 [1] [µM]
CCOC(=O)C(C)(C)Oc1ccc2c(-c3ccc(Cl)cc3)c(-c3ccc(Cl)cc3)c(=O)oc2c1	> 100 µM	> 100 µM	> 100	> 100	> 100	> 100	> 100 µM	> 100 µM	–	–	–	–	–	–	–	–	–	–	–	–
CC(=O)[O-].[Zn].c1ccc(/C(=N\Nc2ccccn2)c2ccccn2)cc1	9.16 µM	0.962 µM and 5.73 µM	1.32	18.1	3.13	12.3	10.9 µM	0.67 µM and 1.17 µM	0.212	0.35	0.131	2.06	0.421	0.46 µM	0.363	0.0476	–	–	–	–
COc1nc2c(nc(N)n2C2OCC(O)C(O)C2O)c(=O)n1C (configuration not stated)	> 100 µM	> 100 µM	> 100	> 100	> 100	> 100	> 100 µM	> 100 µM	–	–	–	> 100	–	–	–	–	–	–	–	–
N#Cc1nc2c(S(=O)(=O)c3ccccc3)c(N)n(Cc3ccc(Cl)cc3)c2nc1C#N	–	–	> 50	> 50	37.6	> 50	17.6 µM	18.1 µM	–	10.9	7.18	> 50	9.14	14.7 µM	5.14	7.51	17.8	13	> 50 µM	–
COc1ccc2c(c1)c(-c1ccc(-c3cn(C)c4ccc(OC)cc34)[nH]1)cn2C	49.1 µM	22.2 µM	19.5	4.01	18.1	45.7	10.9 µM	6.55 µM	8.2	4.09	–	–	3.45	4.59 µM	2.77	2.14	1.94	3.11	11 µM	10.9
CCOC(=O)N1C(c2ccccc2)C=CC(c2ccccc2)N1C(=O)OCC (configuration not stated)	> 100 µM	–	> 100	> 100	> 100	> 100	> 100 µM	> 100 µM	–	–	–	–	–	–	–	–	–	–	> 100 µM	–
COc1cc(/C=C\c2ccc(Br)cc2)cc(OC)c1OC	–	–	–	64.1	54	–	> 100 µM	> 100 µM	–	–	–	0.00151	–	–	–	–	–	–	96.8 µM	–
Cc1cc(N(CCCNc2ccnc3cc(Cl)ccc23)Cc2ccc3c(c2)OCO3)nc(N2CCCCC2)n1	5.11 µM	20.5 µM	–	6.45	6.21	3.39	12 µM	3.64 µM	4.03	–	1.89	4.19	2.33	1.59 µM	2.87	1.91	1.93	2.44	7.04 µM	2.14
Cc1ccc(C2=C(c3ccc(C)cc3)C(c3ccc(C)cc3)=C(c3ccc(C)cc3)C2=O)cc1	> 100 µM	> 100 µM	> 100	–	> 100	> 100	> 100 µM	–	–	–	–	> 100	–	–	–	–	–	–	> 100 µM	–
CCn1c(=O)c2ccccc2n2c(=O)c3cc4ccccc4cc3nc12	> 100 µM	> 100 µM	> 100	–	> 100	80	> 100 µM	> 100 µM	–	–	–	> 100	–	–	–	–	–	–	> 100 µM	–
CC(C)C[C@H](NC(=O)[C@H](Cc1cccc2ccccc12)NS(=O)(=O)c1cccc2cccnc12)B(O)O	0.222 µM and 0.126 µM	0.000542 µM	1.35	0.173	–	–	0.23 µM and 0.109 µM	0.0385 µM and 0.125 µM	–	0.0618	–	0.0352	–	0.0614 µM and 0.0596 µM	0.0071	0.00488	–	0.00827	0.138 µM and 0.246 µM	0.00342
CC(=O)OC1CCC2C(=CCC3C2(C)C(=O)CC2(C)C(C4(C)OC(C(C)C)=CC4=O)C(O)CC32C)C1(C)C (configuration not stated)	> 100 µM	> 100 µM	66.4	–	> 100	–	> 100 µM	41.7 µM	–	–	–	> 100	–	–	–	–	–	–	> 100 µM	–
N#Cc1ccc(Oc2cccc(Oc3ccccc3)c2)cc1C#N	> 100 µM	–	> 100	> 100	> 100	> 100	> 100 µM	> 100 µM	–	–	–	> 100	–	–	> 100	> 100	–	> 100	> 100 µM	–
c1ccc(B2OCC(C3OB(c4ccccc4)OC4COB(c5ccccc5)OC43)O2)cc1 (configuration not stated)	> 100 µM	–	> 100	> 100	> 100	> 100	> 100 µM	> 100 µM	–	–	–	> 100	–	–	–	–	–	–	> 100 µM	–
COc1ccc(-c2ccc(-c3ccc(C(=N)N)cn3)o2)cc1Cl	5.57 µM	13.3 µM	3.63	7.75	8.38	3.27	3.45 µM	–	2.89	1.89	1.85	3.59	2.67	1.65 µM	1.77	–	2.58	1.74	3.38 µM	2.05
Nc1nccc2c1ncn2C1OC(CO)C(O)C1O (configuration not stated)	–	> 100 µM	> 100	> 100	> 100	> 100	> 100 µM	> 100 µM	> 100	73.8	> 100	> 100	83.4	> 100 µM	89.3	> 100	> 100	> 100	> 100 µM	–
CC(=O)/C=C1\CC(=O)Nc2ccccc2N1	> 100 µM	> 100 µM	> 100	> 100	> 100	> 100	> 100 µM	> 100 µM	–	–	–	–	–	–	–	–	–	–	> 100 µM	–
CCC1(NC(=O)c2cc(F)c(F)c(F)c2F)C(=O)NC(=O)N(C(C)C)C1=O (configuration not stated)	53 µM	46.4 µM	> 100	> 100	37	87.3	> 100 µM	34.1 µM	19.1	49.7	–	–	19.1	27.4 µM	26.4	15.7	> 100	> 100	> 100 µM	23.5

Reference: PubChem BioAssay (NCI)
